Test results: patent publication US10703821B2, “Method for stimulating or enhancing proliferation of cells by activating the mucin 1 (MUC1) receptor” (MINERVA BIOTECHNOLOGIES CORPORATION, priority 2005, dated 2020)

Tested on: PSMGFR region of MUC1
Experiment: western blot of ERK2 phosphorylation, competition with anti-PSMGFR
Assay type: cell-based
Source text: FIG. 6 is a western blot of a competition experiment in which small molecules that bind to the PSMGFR region of MUC1 compete with anti-PSMGFR for binding to the site. […] The chemical formula for the competitor compound MN 9 referred to in this figure is […]

O=C(c1ccc2ccccc2c1)N1CCc2c([nH]c3ccccc23)C1c1ccc(C(F)(F)F)cc1 (centres unmarked) [MN 9]
binding of anti-PSMGFR to the PSMGFR site in competition (in the presence of competitor small molecule): the antibody does not bind | ERK2 phosphorylation (in the presence of competitor small molecule and anti-PSMGFR): ERK2 phosphorylation is inhibited
